A short description of this data set: Tolerability / adverse effects of Thymosin alpha 1 in patients with cirrhosis and hepatic decompensation. It is filed as in vivo, patient. How it is done:
Patient 2 was a person with very far-advanced cirrhosis secondary to long-standing chronic Hepatitis B infection. Their findings included jaundice, weakness, severe encephalopathy, hepato-renal syndrome with renal failure, and portal gastropathy secondary to increased portal vein pressure. They received Thymosin alpha 1 at a dose of 1.6 mg subcutaneously twice weekly under a compassionate use protocol in an attempt to cure their Hepatitis B virus infection so that they could received a liver transplant. […] Death was associated with complications of portal hypertension and cirrhosis, and not due to therapy with Thymosin alpha 1.
They were started on Thymosin alpha 1 at a dose of 1.6 mg subcutaneously twice weekly, with the intention of treating them for 26 weeks. […] However, their therapy was discontinued after 46 injections because of complications of the cirrhosis. They expired about three weeks after their last injection. Their death was attributed to bleeding esophageal varices and hepatoma.
In summary, the above three patients with cirrhosis and hepatic decompensation received Thymosin alpha 1 at a dose of 1.6 mg subcutaneously twice weekly for periods varying from 3.5 weeks to 6 months. In each case, the intent of therapy was to cure chronic Hepatitis B virus infection so that the patient could be considered for transplant. […] Two other patients, both of whom had far-advanced disease, died of complications of cirrhosis, with no evidence that Thymosin alpha 1 contributed to their deaths.

No end group written: not given here.

On to “Ac-SDAAVDTSSEITTKDLKEKKEVVEEAEN [Thymosin alpha 1]”, for which the side effects entry (Patient 2, 1.6 mg subcutaneously twice weekly, 3 1/2 weeks of therapy) is “no side effects”. Besides, under “Patient 3, 1.6 mg subcutaneously twice weekly, 46 injections”, the adverse effects result was “no adverse effects”. The “adverse effects due to Tα1” value (three patients with cirrhosis and hepatic decompensation, 1.6 mg subcutaneously twice weekly for 3.5 weeks to 6 months) is recorded as “None of the patients reported any adverse effects”.
